From patent US20230117034A1, “PYRAZOLOTRIAZINES” (Bayer Aktiengesellschaft, priority 2019, published 2023)
pIC50: −log10 of the molar value.

Key:
CDK9/CycT1 = molecular target: T1, CDK9/CycT1 (Homo sapiens, UniProt P50750); assay: CDK9/CycT1 high ATP kinase assay (TR-FRET, 2 mM ATP); assay type: biochemical; details: 2 mM ATP (high ATP); median; read-out: CDK9/CyclinT1, 2 mM ATP (high ATP), IC50 (median)
T1 construct: Recombinant full-length His-tagged human CDK9 and CycT1; purchased Life Technologies PV4131; host or cells: insect cells
Method in brief: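 Full-length His-tagged human CDK9/CycT1 (insect cell, ~0.5 μg/mL) preincubated 15 min at 22 °C with compound in Tris pH 8.0, MgCl2, DTT buffer before reaction with biotinylated peptide substrate at high ATP (2 mM).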

[1] = molecular target: T2, CYCLIN K (nuclear staining in CAL-120 cells) (Homo sapiens, UniProt O75909); assay: CYCLIN K nuclear protein level: immunofluorescence high content analysis (CAL-120); assay type: cell-based; details: 24 h, 50% reduction of nuclear CCNK staining intensity, median, read-out: CYCLIN K degradation IF, DC50-[mol/l] (median)
T2 construct: endogenous in cells; host or cells: CAL-120 human breast cancer cells (DSMZ ACC 459)
Method in brief: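 Readout is automated confocal image analysis of nuclear cyclin K immunofluorescence (Hoechst nuclei) after PFA fixation. Cells were CAL-120, exposed to compound dose-response 24 h at 37 °C; values are DC50 for halving nuclear CCNK signal relative to DMSO and control wells.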

[2] = system: BRCA1 mRNA expression in MDA-MB-231 cells; assay: qRT-PCR assay: BRCA1 mRNA expression in MDA-MB-231; assay type: cell-based, human; details: Homo sapiens, MDA-MB-231, Inhibition of BRCA1 mRNA expression in MDA-MB-231 cells; median; read-out: RTqPCR-MDA-MB-231, IC50, BRCA1 (median)
Method in brief: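 BRCA1 transcript by RT-qPCR relative to GAPDH, from 600 ng RNA converted to cDNA. MDA-MB-231 cells plated at 200,000/well received test compound continuously for 24 h, starting 24 h post-seeding.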

[3] = molecular target: T3, CDK12 (nuclear staining in CAL-120 cells) (Homo sapiens, UniProt Q9NYV4); assay: CDK12 nuclear protein level: immunofluorescence/high content analysis (CAL-120); assay type: cell-based; details: for DC50: CAL-120 cells, 24 h, immunofluorescence, 50% reduction of nuclear CDK12 staining intensity, median, read-out: CDK12 degradation IF, DC50- [mol/l] (median); for (IC50 CDK12 high ATP) to (Degradation DC50 CDK12) ratio: ratio of IC50 CDK12 high ATP kinase assay to DC50 CDK12 degradation (IF, CAL-120)
T3 construct: endogenous in cells; host or cells: CAL-120 human breast cancer cells (DSMZ ACC 459)
Method in brief: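 DC50 is the degrader concentration that halves nuclear CDK12 immunofluorescence relative to controls, measured by high-content imaging. CAL-120 cells were exposed to compound for 24 h at 37 °C before PFA fixation, and signal was normalized to DMSO and control wells.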

T1 sequence (P50750 whole entry): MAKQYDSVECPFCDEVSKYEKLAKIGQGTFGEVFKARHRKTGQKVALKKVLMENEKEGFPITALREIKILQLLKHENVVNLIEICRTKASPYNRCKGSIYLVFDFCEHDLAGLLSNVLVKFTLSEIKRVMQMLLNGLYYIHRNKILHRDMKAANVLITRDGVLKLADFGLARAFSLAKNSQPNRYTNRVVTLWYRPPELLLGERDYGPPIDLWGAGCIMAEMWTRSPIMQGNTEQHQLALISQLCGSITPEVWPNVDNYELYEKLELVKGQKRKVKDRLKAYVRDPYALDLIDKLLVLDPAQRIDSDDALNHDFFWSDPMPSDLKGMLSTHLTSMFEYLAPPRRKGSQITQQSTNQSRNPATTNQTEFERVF
T1 sequence (O60563 whole entry partner): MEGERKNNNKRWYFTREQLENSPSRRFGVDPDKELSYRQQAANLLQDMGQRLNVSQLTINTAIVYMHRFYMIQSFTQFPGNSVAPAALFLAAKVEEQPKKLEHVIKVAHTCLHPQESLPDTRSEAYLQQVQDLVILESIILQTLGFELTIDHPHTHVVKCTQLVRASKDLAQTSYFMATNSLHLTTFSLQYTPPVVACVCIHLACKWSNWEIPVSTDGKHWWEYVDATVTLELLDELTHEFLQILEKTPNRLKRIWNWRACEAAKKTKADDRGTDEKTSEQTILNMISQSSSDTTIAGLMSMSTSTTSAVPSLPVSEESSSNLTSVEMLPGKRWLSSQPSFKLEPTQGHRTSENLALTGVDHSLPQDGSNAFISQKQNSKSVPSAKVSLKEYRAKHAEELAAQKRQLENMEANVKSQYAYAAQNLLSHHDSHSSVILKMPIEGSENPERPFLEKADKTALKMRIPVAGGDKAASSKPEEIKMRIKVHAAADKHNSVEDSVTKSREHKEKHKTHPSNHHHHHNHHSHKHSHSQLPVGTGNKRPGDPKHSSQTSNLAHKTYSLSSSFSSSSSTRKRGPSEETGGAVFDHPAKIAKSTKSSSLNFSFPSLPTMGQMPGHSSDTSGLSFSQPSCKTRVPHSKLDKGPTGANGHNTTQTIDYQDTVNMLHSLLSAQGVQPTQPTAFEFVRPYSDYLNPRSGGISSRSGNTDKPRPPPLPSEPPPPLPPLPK
T3 sequence (Q9NYV4 whole entry): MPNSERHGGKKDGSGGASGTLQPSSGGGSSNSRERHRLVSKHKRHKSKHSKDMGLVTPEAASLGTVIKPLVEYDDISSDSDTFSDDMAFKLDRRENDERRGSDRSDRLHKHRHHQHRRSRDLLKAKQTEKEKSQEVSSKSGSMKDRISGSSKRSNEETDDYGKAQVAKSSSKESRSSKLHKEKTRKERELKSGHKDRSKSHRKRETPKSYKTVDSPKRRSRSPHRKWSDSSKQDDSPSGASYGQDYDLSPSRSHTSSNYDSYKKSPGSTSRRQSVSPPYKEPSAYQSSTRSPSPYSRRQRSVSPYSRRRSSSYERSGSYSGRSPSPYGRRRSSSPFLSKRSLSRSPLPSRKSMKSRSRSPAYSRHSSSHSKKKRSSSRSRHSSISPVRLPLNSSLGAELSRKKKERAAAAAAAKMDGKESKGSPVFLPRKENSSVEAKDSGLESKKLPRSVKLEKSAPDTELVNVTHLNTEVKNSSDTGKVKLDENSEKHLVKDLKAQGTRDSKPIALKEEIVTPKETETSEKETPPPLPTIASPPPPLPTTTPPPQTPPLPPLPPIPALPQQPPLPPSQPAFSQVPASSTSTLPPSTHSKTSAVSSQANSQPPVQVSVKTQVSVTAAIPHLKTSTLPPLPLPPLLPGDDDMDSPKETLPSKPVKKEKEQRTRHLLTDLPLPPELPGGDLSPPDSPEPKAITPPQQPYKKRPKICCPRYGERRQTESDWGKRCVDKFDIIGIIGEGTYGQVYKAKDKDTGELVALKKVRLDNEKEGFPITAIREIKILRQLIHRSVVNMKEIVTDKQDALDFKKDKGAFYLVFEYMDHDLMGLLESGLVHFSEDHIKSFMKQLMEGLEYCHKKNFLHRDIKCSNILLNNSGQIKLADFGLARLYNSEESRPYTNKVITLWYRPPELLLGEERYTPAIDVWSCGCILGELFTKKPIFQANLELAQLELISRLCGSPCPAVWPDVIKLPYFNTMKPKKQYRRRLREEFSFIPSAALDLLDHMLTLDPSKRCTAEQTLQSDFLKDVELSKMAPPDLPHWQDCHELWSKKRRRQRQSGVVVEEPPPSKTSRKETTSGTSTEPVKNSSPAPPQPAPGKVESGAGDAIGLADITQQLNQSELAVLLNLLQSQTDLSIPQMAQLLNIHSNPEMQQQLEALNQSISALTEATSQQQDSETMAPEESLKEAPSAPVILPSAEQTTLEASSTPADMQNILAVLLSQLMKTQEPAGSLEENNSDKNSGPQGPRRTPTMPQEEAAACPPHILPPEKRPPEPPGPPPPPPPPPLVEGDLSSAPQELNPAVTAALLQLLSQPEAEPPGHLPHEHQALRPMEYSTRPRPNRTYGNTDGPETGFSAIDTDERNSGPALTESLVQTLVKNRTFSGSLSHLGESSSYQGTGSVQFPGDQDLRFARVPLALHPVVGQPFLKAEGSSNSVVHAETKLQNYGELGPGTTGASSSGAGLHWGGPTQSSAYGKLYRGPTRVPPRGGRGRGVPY
T3 sequence (O75909 whole entry partner): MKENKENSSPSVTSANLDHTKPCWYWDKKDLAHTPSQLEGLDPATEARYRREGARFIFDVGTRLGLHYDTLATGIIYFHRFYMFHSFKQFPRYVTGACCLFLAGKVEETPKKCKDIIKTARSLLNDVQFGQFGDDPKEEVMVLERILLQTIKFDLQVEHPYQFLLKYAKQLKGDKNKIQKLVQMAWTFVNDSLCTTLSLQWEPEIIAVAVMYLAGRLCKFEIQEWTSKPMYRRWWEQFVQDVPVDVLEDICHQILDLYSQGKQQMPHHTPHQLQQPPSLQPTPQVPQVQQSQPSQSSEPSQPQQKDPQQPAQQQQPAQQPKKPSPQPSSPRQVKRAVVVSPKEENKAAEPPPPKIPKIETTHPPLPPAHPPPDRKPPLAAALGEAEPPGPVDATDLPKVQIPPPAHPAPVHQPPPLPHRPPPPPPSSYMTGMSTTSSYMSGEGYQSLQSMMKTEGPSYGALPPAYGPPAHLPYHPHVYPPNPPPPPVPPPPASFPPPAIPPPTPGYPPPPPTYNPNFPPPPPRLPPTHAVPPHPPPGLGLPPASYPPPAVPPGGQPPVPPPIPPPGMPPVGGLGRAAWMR
T2 sequence (O75909 whole entry): as the sequence (O75909 whole entry partner) above
T2 sequence (Q9NYV4 whole entry partner): as the sequence (Q9NYV4 whole entry) above

Compound | pIC50 (CDK9/CycT1) | DC50 [1] [nM] | pIC50 [2] | DC50 [3] [nM] | (IC50 CDK12 high ATP) to (Degradation DC50 CDK12) ratio [3]
CC(C)c1cnn2c(NCc3nc4ccccc4[nH]3)nc(N3CCOCC3)nc12 [Example 1, N-[(1H-benzimidazol-2-yl)methyl]-2-(morpholin-4-yl)-8-(propan-2-yl)pyrazolo[1,5-a][1,3,5]triazin-4-amine] | < 4.70 | 11.1 | 7.78 | 11.1 | 537
Cc1ccccc1-c1cnc(CNc2nc(N3CCOCC3)nc3c(Br)cnn23)[nH]1 [Example 85, 8-bromo-N-{[5-(2-methylphenyl)-1H-imidazol-2-yl]methyl}-2-(morpholin-4-yl)pyrazolo[1,5-a][1,3,5]triazin-4-amine] | < 4.97 | 1.2 | 7.74 | 5.57 | 1137
COC1CCN(c2nc(NCc3nc4ccccc4[nH]3)n3ncc(Br)c3n2)CC1 [Example 62, N-[(1H-benzimidazol-2-yl)methyl]-8-bromo-2-(4-methoxypiperidin-1-yl)pyrazolo[1,5-a][1,3,5]triazin-4-amine] | < 4.70 | 2.27 | 7.42 | 10 | 569
Fc1ccc2[nH]c(CNc3nc(N4CCOCC4)nc4c(-c5cnn(C(F)F)c5)cnn34)nc2c1F [Example 422, N-[(4,5-difluoro-1H-benzimidazol-2-yl)methyl]-8-[1-(difluoromethyl)-1H-pyrazol-4-yl]-2-(morpholin-4-yl)pyrazolo[1,5-a][1,3,5]triazin-4-amine] | < 4.70 | – | 8.13 | 6.81 | 239
FC(F)(F)Oc1ccccc1-c1nnc(CNc2nc(N3CCOCC3)nc3c(Br)cnn23)[nH]1 [Example 74, 8-bromo-2-(morpholin-4-yl)-N-({5-[2-(trifluoromethoxy)phenyl]-4H-1,2,4-triazol-3-yl}methyl)pyrazolo[1,5-a][1,3,5]triazin-4-amine] | < 4.70 | – | – | 57.4 | –
FC(F)(F)Oc1cccc(-c2cnc(CNc3nc(N4CCOCC4)nc4c(Br)cnn34)[nH]2)c1 [Example 82, 8-bromo-2-(morpholin-4-yl)-N-({5-[3-(trifluoromethoxy)phenyl]-1H-imidazol-2-yl}methyl)pyrazolo[1,5-a][1,3,5]triazin-4-amine] | 4.90 | 14.2 | – | 22.3 | 41
COC(=O)C1CCN(c2nc(NCc3nnc(-c4ccccc4)[nH]3)n3ncc(Br)c3n2)CC1 [Example 77, methyl 1-(8-bromo-4-{[(5-phenyl-4H-1,2,4-triazol-3-yl)methyl]amino}pyrazolo[1,5-a][1,3,5]triazin-2-yl)piperidine-4-carboxylate] | 4.89 | – | – | 116 | 87
CC(C)c1cnn2c(NCc3nc4ccccc4[nH]3)nc(N(C)C)nc12 [Example 3, N^4-[(1H-benzimidazol-2-yl)methyl]-N^2,N^2-dimethyl-8-(propan-2-yl)pyrazolo[1,5-a][1,3,5]triazine-2,4-diamine] | < 4.70 | – | – | 94.5 | >212
FC(F)(F)Oc1ccccc1-c1cnc(CNc2nc(N3CCOCC3)nc3c(Br)cnn23)[nH]1 [Example 89, 8-bromo-2-(morpholin-4-yl)-N-({5-[2-(trifluoromethoxy)phenyl]-1H-imidazol-2-yl}methyl)pyrazolo[1,5-a][1,3,5]triazin-4-amine] | < 4.70 | 1.43 | – | 7.3 | 1471
O[C@@H]1CCN(c2nc(NCc3nc4ccccc4[nH]3)n3ncc(Br)c3n2)C1 [Example 202, (3R)-1-(4-{[(1H-benzimidazol-2-yl)methyl]amino}-8-bromopyrazolo[1,5-a][1,3,5]triazin-2-yl)pyrrolidin-3-ol] | < 4.70 | – | – | 31.8 | 518
CC(C)c1cnn2c(NCc3nc4ccccc4[nH]3)nc(N3CCOC(C)(C)C3)nc12 [Example 12, N-[(1H-benzimidazol-2-yl)methyl]-2-(2,2-dimethylmorpholin-4-yl)-8-(propan-2-yl)pyrazolo[1,5-a][1,3,5]triazin-4-amine] | < 4.70 | – | 6.93 | 42.7 | 399
CN1CCN(c2nc(NCc3nc4cc(Cl)c(Cl)cc4[nH]3)n3ncc(C4CC4)c3n2)CC1 [Example 305, 8-cyclopropyl-N-[(5,6-dichloro-1H-benzimidazol-2-yl)methyl]-2-(4-methylpiperazin-1-yl)pyrazolo[1,5-a][1,3,5]triazin-4-amine] | < 4.70 | 0.972 | 8.21 | – | –
Fc1ccccc1-c1nnc(CNc2nc(N3CCOCC3)nc3c(Br)cnn23)[nH]1 [Example 75, 8-bromo-N-{[5-(2-fluorophenyl)-4H-1,2,4-triazol-3-yl]methyl}-2-(morpholin-4-yl)pyrazolo[1,5-a][1,3,5]triazin-4-amine] | < 5.21 | 8.7 | – | 7.38 | >511

The remaining compounds from weak to strong by pIC50 (CDK9/CycT1), led by results:

pIC50 (CDK9/CycT1) | DC50 [1] [nM] | pIC50 [2] | DC50 [3] [nM] | (IC50 CDK12 high ATP) to (Degradation DC50 CDK12) ratio [3] | Compound
5.07 | 17.3 | – | 23.3 | 116 | c1ccc(-c2nnc(CNc3nc(N4CCOCC4)nc4c(C5CC5)cnn34)[nH]2)cc1 [Example 93, 8-cyclopropyl-2-(morpholin-4-yl)-N-[(5-phenyl-4H-1,2,4-triazol-3-yl)methyl]pyrazolo[1,5-a][1,3,5]triazin-4-amine]
5.08 | – | – | 84.5 | >68 | Clc1ccccc1-c1nnc(CNc2nc(N3CCOCC3)nc3c(Br)cnn23)[nH]1 [Example 69, 8-bromo-N-{[5-(2-chlorophenyl)-4H-1,2,4-triazol-3-yl]methyl}-2-(morpholin-4-yl)pyrazolo[1,5-a][1,3,5]triazin-4-amine]
5.11 | 8.06 | – | 12.1 | >440 | COC1CCN(c2nc(NCc3nnc(-c4ccccc4)[nH]3)n3ncc(Br)c3n2)CC1 [Example 76, 8-bromo-2-(4-methoxypiperidin-1-yl)-N-[(5-phenyl-4H-1,2,4-triazol-3-yl)methyl]pyrazolo[1,5-a][1,3,5]triazin-4-amine]
5.17 | 1.78 | – | 9.37 | 111 | FC(F)(F)c1cccc(-c2cnc(CNc3nc(N4CCOCC4)nc4c(Br)cnn34)[nH]2)c1 [Example 83, 8-bromo-2-(morpholin-4-yl)-N-({5-[3-(trifluoromethyl)phenyl]-1H-imidazol-2-yl}methyl)pyrazolo[1,5-a][1,3,5]triazin-4-amine]
5.19 | 1.16 | – | 16.3 | 84 | FC(F)(F)c1ccccc1-c1cnc(CNc2nc(N3CCOCC3)nc3c(Br)cnn23)[nH]1 [Example 88, 8-bromo-2-(morpholin-4-yl)-N-({5-[2-(trifluoromethyl)phenyl]-1H-imidazol-2-yl}methyl)pyrazolo[1,5-a][1,3,5]triazin-4-amine]
5.27 | 3.87 | – | 5.31 | 144 | Clc1cccc(-c2cnc(CNc3nc(N4CCOCC4)nc4c(Br)cnn34)[nH]2)c1 [Example 81, 8-bromo-N-{[5-(3-chlorophenyl)-1H-imidazol-2-yl]methyl}-2-(morpholin-4-yl)pyrazolo[1,5-a][1,3,5]triazin-4-amine]
5.60 | 0.469 | – | 1.23 | 460 | Fc1cccc(-c2cnc(CNc3nc(N4CCOCC4)nc4c(Br)cnn34)[nH]2)c1 [Example 79, 8-bromo-N-{[5-(3-fluorophenyl)-1H-imidazol-2-yl]methyl}-2-(morpholin-4-yl)pyrazolo[1,5-a][1,3,5]triazin-4-amine]
6.11 | 1.61 | – | 5.15 | 141 | C[C@@H]1CN(c2nc(NCc3nnc(-c4ccccc4)[nH]3)n3ncc(Br)c3n2)C[C@H](C)O1 [Example 78, 8-bromo-2-[(2R,6S)-2,6-dimethylmorpholin-4-yl]-N-[(5-phenyl-4H-1,2,4-triazol-3-yl)methyl]pyrazolo[1,5-a][1,3,5]triazin-4-amine]
